Source: the supplement of paper PMC11061612

Experiments:
Assay in all cases: combination Emax (second highest fraction inhibited in the dose matrix, 72 h); higher = more inhibition; extreme values may be limits of the assay
[1] = system: 639-V (Bladder Carcinoma)
In short: (§1)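 Cell lines in DMEM/F12 or RPMI with 10% FBS were plated in 1536-well plates, held 24 hours at 37°C, 5% CO2, then given two-drug dose matrices for 72 hours (DMSO typically 0.2%). Viability was read by CellTiter-Glo 2.0 luminescence and scaled as inhibition from 0 (vehicle wells) to 1 (blank wells). Combination Emax is the second-highest inhibition in the matrix; Bliss excess is observed combination effect minus expected EA + EB − EA·EB, EA and EB being single-agent effects.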

[2] = system: 8305C (Thyroid Gland Carcinoma)
In short: as §1

[3] = system: CAL-54 (Kidney Carcinoma)
In short: as §1

[4] = system: CTB-1 (B-Cell Non-Hodgkin's Lymphoma)
In short: as §1

[5] = system: HARA (Squamous Cell Lung Carcinoma)
In short: as §1

[6] = system: HDLM-2 (Hodgkin's Lymphoma)
In short: as §1

[7] = system: K5 (Thyroid Gland Carcinoma)
In short: as §1

[8] = system: LB771-HNC (Head and Neck Carcinoma)
In short: as §1

[9] = system: LU-139 (Small Cell Lung Carcinoma)
In short: as §1

[10] = system: MHH-PREB-1 (B-Cell Non-Hodgkin's Lymphoma)
In short: as §1

[11] = system: NB14 (Neuroblastoma)
In short: as §1

[12] = system: NCI-H69 (Small Cell Lung Carcinoma)
In short: as §1

[13] = system: NCI-H747 (Colorectal Carcinoma)
In short: as §1

[14] = system: OC-314 (Ovarian Carcinoma)
In short: as §1

[15] = system: OVCAR-8 (Ovarian Carcinoma)
In short: as §1

[16] = system: RKO (Colorectal Carcinoma)
In short: as §1

[17] = system: SK-OV-3 (Ovarian Carcinoma)
In short: as §1

[18] = system: SW1271 (Small Cell Lung Carcinoma)
In short: as §1

[19] = system: SW626 (Colorectal Carcinoma)
In short: as §1

[20] = system: RPMI-6666 (Non-Cancerous)
In short: as §1

Row | Structure (SMILES) | combination Emax [1] | combination Emax [2] | combination Emax [3] | combination Emax [4] | combination Emax [5] | combination Emax [6] | combination Emax [7] | combination Emax [8] | combination Emax [9] | combination Emax [10] | combination Emax [11] | combination Emax [12] | combination Emax [13] | combination Emax [14] | combination Emax [15] | combination Emax [16] | combination Emax [17] | combination Emax [18] | combination Emax [19] | combination Emax [20]
1 | C=CCn1c(=O)c2cnc(Nc3ccc(N4CCN(C)CC4)cc3)nc2n1-c1cccc(C(C)(C)O)n1 [AZD1775] + O=C(c1cc(Cc2n[nH]c(=O)c3ccccc23)ccc1F)N1CCN(C(=O)C2CC2)CC1 [Olaparib] (first compound max 1 µM, partner max 10 µM) | 0.333 | 0.506 | 0.679 | 0.879 | 0.743 | 0.74 | 0.528 | 0.533 | 0.636 | 0.76 | 0.986 | 0.478 | 0.501 | 0.631 | 0.797 | 0.719 | 0.547 | 0.619 | 0.573 | 
2 | CCc1c2c(nc3ccc(O)cc13)-c1cc3c(c(=O)n1C2)COC(=O)[C@]3(O)CC [SN-38] + O=C(c1cc(Cc2n[nH]c(=O)c3ccccc23)ccc1F)N1CCN(C(=O)C2CC2)CC1 [Olaparib] (first compound max 0.3 µM, 7x7, partner max 10 µM) | 1 | 0.627 | 0.788 | 0.837 | 0.852 | 0.473 | 0.505 | 0.0947 | 0.767 |  | 0.967 | 0.692 | 0.542 | 1 |  | 0.86 | 0.535 | 0.758 | 0.559 | 0.998
3 | NC1(C(=O)N[C@@H](CCO)c2ccc(Cl)cc2)CCN(c2ncnc3[nH]ccc23)CC1 [Capivasertib] + CCN(CCO)CCCOc1ccc2c(Nc3cc(CC(=O)Nc4cccc(F)c4)[nH]n3)ncnc2c1 [AZD2811] (first compound max 10 µM, 7x7, partner max 1 µM) | 0.387 | 0.452 | 0.545 |  | 0.679 | 0.395 | 0.554 | 0.489 | 0.293 | 0.257 | 0.938 | 0.877 | 0.631 | 0.571 | 0.393 | 0.615 | 0.394 | 0.315 | 0.292 | 0.675
4 | CC(=O)c1c(C)c2cnc(Nc3ccc(N4CCNCC4)cn3)nc2n(C2CCCC2)c1=O [Palbociclib] + Cn1cnc2c(F)c(Nc3ccc(Br)cc3Cl)c(C(=O)NOCCO)cc21 [Selumetinib] (first compound max 10 µM, 7x7, partner max 10 µM) | 0.259 | 0.469 | 0.616 |  | 0.499 | 0.335 | 0.627 | 0.194 | 0.282 | 0.445 | 0.705 | 0.487 | 0.811 | 0.478 | 0.146 | 0.715 | 0.237 | 0.428 | 0.531 | 0.65
5 | NC1(C(=O)N[C@@H](CCO)c2ccc(Cl)cc2)CCN(c2ncnc3[nH]ccc23)CC1 [Capivasertib] + C[C@@H]1COCCN1C2=NC(=NC(=C2)C3(CC3)[S@](=N)(=O)C)C4=C5C=CNC5=NC=C4 [AZD6738] (first compound max 10 µM, 7x7, partner max 10 µM) | 0.496 | 0.683 | 0.813 |  | 0.868 | 0.518 | 0.687 | 0.674 | 0.25 | 0.749 | 0.964 | 0.671 | 0.626 | 0.793 | 0.776 | 0.938 | 0.493 | 0.512 | 0.68 | 0.775
6 | Cc1nc(Nc2ncc(C(=O)Nc3c(C)cccc3Cl)s2)cc(N2CCN(CCO)CC2)n1 [Dasatinib] + CC(=O)Nc1cccc(-n2c(=O)n(C3CC3)c(=O)c3c(Nc4ccc(I)cc4F)n(C)c(=O)c(C)c32)c1 [Trametinib] (first compound max 2 µM, 7x7, partner max 1 µM) | 0.466 | 0.763 | 0.958 |  | 0.531 | 0.12 | 0.929 | 0.202 | 0.0497 | 0.0875 | 0.465 | 0.124 | 0.909 | 0.781 | 0.671 | 0.885 | 0.392 | 0.928 | 0.849 | 0.686
7 | C=CCn1c(=O)c2cnc(Nc3ccc(N4CCN(C)CC4)cc3)nc2n1-c1cccc(C(C)(C)O)n1 [AZD1775] + C1CN(CCC1(C(=O)N[C@@H](CCO)C2=CC=C(C=C2)Cl)N)C3=NC=NC4=C3C=CN4 [Capivasertib] (first compound max 3 µM, partner max 3 µM) | 0.642 | 0.681 | 0.782 |  | 0.929 | 0.769 | 0.603 | 0.696 | 0.733 | 0.812 | 0.98 | 0.83 | 0.623 | 0.915 | 0.812 | 0.886 | 0.581 | 0.682 | 0.583 | 0.921
8 | CN(CCO)CC[C@H](CSc1ccccc1)Nc1ccc(S(=O)(=O)NC(=O)c2ccc(N3CCC([C@@H](O)c4ccccc4-c4ccc(Cl)cc4)CC3)cc2)cc1S(=O)(=O)C(F)(F)F [AZD4320] + C=CCn1c(=O)c2cnc(Nc3ccc(N4CCN(C)CC4)cc3)nc2n1-c1cccc(C(C)(C)O)n1 [AZD1775] (first compound max 1 µM, partner max 1 µM) | 0.377 | 0.7 | 0.827 | 0.862 | 0.887 | 0.989 | 0.485 | 0.644 | 0.927 |  | 1 | 0.858 | 0.446 | 0.619 | 0.908 | 0.617 | 0.628 | 0.814 | 0.748 | 1
9 | CC(=O)c1c(C)c2cnc(Nc3ccc(N4CCNCC4)cn3)nc2n(C2CCCC2)c1=O [Palbociclib] + Cc1c2c(nn1C)CSCc1cc(n(C)n1)CSc1cc(c3ccccc3c1)OCCCc1c(C(=O)O)n(C)c3c-2c(Cl)ccc13 [AZD5991] (first compound max 10 µM, 7x7, partner max 1 µM) | 0.269 | 0.666 | 0.583 |  | 0.559 | 0.97 | 0.541 | 0.448 | 0.25 | 0.511 | 0.822 | 0.471 | 0.608 | 0.334 | 0.129 | 0.472 | 0.179 | 0.301 | 0.336 | 0.73
10 | COc1nnc2ccc(N3CCC(c4ccc(OCCN5CCN(C)C(=O)[C@H]5C)cc4)CC3)nn12 [AZD5153] + CC1(C)CCC(CN2CCN(c3ccc(C(=O)NS(=O)(=O)c4ccc(NCC5CCOCC5)c([N+](=O)[O-])c4)c(Oc4cnc5[nH]ccc5c4)c3)CC2)=C(c2ccc(Cl)cc2)C1 [Venetoclax] (first compound max 1 µM, 7x7, partner max 1 µM) | 0.582 | 0.524 | 0.769 |  | 0.654 | 0.612 | 0.668 | 0.481 | 0.948 | 0.481 | 0.761 | 0.636 | 0.702 | 0.814 | 0.661 | 0.757 | 0.383 | 0.57 | 0.689 | 0.764
11 | COc1nnc2ccc(N3CCC(c4ccc(OCCN5CCN(C)C(=O)[C@H]5C)cc4)CC3)nn12 [AZD5153] + CCN(CCO)CCCOc1ccc2c(Nc3cc(CC(=O)Nc4cccc(F)c4)[nH]n3)ncnc2c1 [AZD2811] (first compound max 1 µM, 7x7, partner max 1 µM) | 0.681 | 0.594 | 0.778 |  | 0.679 | 0.434 | 0.714 | 0.519 | 0.903 | 0.514 | 0.858 | 0.782 | 0.734 | 0.884 | 0.804 | 0.812 | 0.376 | 0.534 | 0.735 | 0.634
12 | COc1nnc2ccc(N3CCC(c4ccc(OCCN5CCN(C)C(=O)[C@H]5C)cc4)CC3)nn12 [AZD5153] + Cn1cnc2c(F)c(Nc3ccc(Br)cc3Cl)c(C(=O)NOCCO)cc21 [Selumetinib] (first compound max 1 µM, 7x7, partner max 10 µM) | 0.676 | 0.576 | 0.765 |  | 0.708 | 0.393 | 0.845 | 0.475 | 0.912 | 0.459 | 0.892 | 0.543 | 0.937 | 0.795 | 0.759 | 0.88 | 0.404 | 0.676 | 0.881 | 0.692
13 | Cc1c2c(nn1C)CSCc1cc(n(C)n1)CSc1cc(c3ccccc3c1)OCCCc1c(C(=O)O)n(C)c3c-2c(Cl)ccc13 [AZD5991] + CN(C)CCCOc1ccc(-c2ccc3ncc4c(c3c2)n(C2CCOCC2)c(=O)n4C)cn1 [AZD0156] (first compound max 1 µM, 7x7, partner max 1 µM) | 0.239 | 0.325 | 0.263 | 0.34 | 0.312 | 0.985 | 0.183 | 0.442 | 0.21 |  | 0.771 | 0.314 | 0.414 | 0.239 | 0.219 | 0.225 | 0.342 | 0.27 | 0.223 | 0.502
